Where “and” joins values, the source holds several entries; their conditions need not be identical. Equal values may be shown once. Read-outs that look alike come from different tables or passages of the source.
What was measured:
hCA IX = hCA IX (Homo sapiens, UniProt Q16790); assay: CA CO2 hydrase activity assay, tumor-associated isozyme hCA IX
bCA IV = molecular target: T1, bCA IV (Bos taurus, UniProt Q95323); assay: CA esterase activity assay, isozyme bCA IV; format: biochemical, bovine
T1 construct: CA IV was isolated from bovine lung microsomes as described by Maren et al; from tissue; host or cells: bovine lung microsomes
T1 sequence (Q95323 19-284): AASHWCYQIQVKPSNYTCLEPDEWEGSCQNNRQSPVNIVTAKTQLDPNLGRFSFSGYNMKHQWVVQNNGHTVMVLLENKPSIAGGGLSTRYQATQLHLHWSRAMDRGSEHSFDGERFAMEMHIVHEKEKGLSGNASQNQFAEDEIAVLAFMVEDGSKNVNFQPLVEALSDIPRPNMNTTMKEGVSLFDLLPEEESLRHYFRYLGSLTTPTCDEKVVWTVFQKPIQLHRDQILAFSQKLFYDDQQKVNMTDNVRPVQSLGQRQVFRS

hCA II = molecular target: T2, hCA II (Homo sapiens, UniProt P00918); assay: CA esterase activity assay, isozyme hCA II; format: biochemical
T2 construct: made in house; host or cells: Escherichia coli BL21 (DE3)

hCA I = molecular target: T3, hCA I (Homo sapiens, UniProt P00915); assay: CA esterase activity assay, isozyme hCA I; format: biochemical
T3 construct: made in house; host or cells: Escherichia coli BL21 (DE3)
T3 sequence (P00915 whole entry): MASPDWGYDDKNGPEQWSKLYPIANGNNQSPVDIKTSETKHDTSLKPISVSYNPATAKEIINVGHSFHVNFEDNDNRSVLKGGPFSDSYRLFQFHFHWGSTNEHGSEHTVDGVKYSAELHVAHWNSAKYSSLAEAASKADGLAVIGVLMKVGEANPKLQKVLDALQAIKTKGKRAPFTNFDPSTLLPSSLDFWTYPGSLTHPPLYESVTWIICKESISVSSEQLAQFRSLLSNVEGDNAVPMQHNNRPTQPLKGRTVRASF

[1] = read-out: KI hCA IX, Table 2, catalytic domain of the human, cloned isozyme
[2] = Table 2, from bovine lung microsomes, read-out: KI bCA IV
[3] = Table 2, human (cloned) isozymes, read-out: KI hCA II
[4] = Table 2, human (cloned) isozymes, read-out: KI hCA I
[5] = KI against CA IX, text discussion of Tables 1-3
[6] = read-out: KI hCA IX, Table 3, catalytic domain of the human, cloned isozyme, CO2 hydrase assay method
[7] = Table 3, from bovine lung microsomes, esterase assay method, read-out: KI bCA IV
[8] = Table 3, human (cloned) isozymes, esterase assay method, read-out: KI hCA II
[9] = Tables 1 and 3, read-out: KI against CA II
[10] = Table 3, human (cloned) isozymes, esterase assay method, read-out: KI hCA I
[11] = Table 3, read-out: KI against CA I
[12] = Table 3, read-out: KI against CA IV

| Ki (hCA IX; [1]) | Ki (bCA IV; [2]) | Ki (hCA II; [3]) | Ki (hCA I; [4]) | Ki (hCA IX) | Ki (hCA IX; [6]) | Ki (bCA IV; [7]) | Ki (hCA II; [8]) | SMILES | other results |
| --- | --- | --- | --- | --- | --- | --- | --- | --- | --- |
| 29 nM | 52 nM | 21 nM | 2000 nM | – | – | – | – | CCc1cc(-c2ccccc2)cc(CC)[n+]1Cc1ccc(S(N)(=O)=O)cc1 [Compound 43] | – |
| 230 nM | 163 nM | 90 nM | 24000 nM | 160 to 450 nM | – | – | – | CCCc1cc(-c2ccccc2)cc(CCC)[n+]1Cc1ccc(S(N)(=O)=O)cc1 [Compound 44] | – |
| 64 nM | 161 nM | – | 32000 nM | – | – | – | – | Cc1cc(-c2ccccc2)cc(-c2ccccc2)[n+]1Cc1ccc(S(N)(=O)=O)cc1 [Compound 46] | Ki (hCA II; read-out: KI hCA II): 121 nM |
| 79 nM | 983 nM | 314 nM | 42000 nM | – | – | – | – | CCc1cc(-c2ccccc2)cc(-c2ccccc2)[n+]1Cc1ccc(S(N)(=O)=O)cc1.[O-][Cl+3]([O-])([O-])[O-] [Compound 47] | – |
| 85 nM | 1260 nM | 390 nM | 130000 nM | – | – | – | – | CCCc1cc(-c2ccccc2)cc(-c2ccccc2)[n+]1Cc1ccc(S(N)(=O)=O)cc1 [Compound 48] | – |
| 135 nM | 2100 nM | 595 nM | 300000 nM | – | – | – | – | CCCCc1cc(-c2ccccc2)cc(-c2ccccc2)[n+]1Cc1ccc(S(N)(=O)=O)cc1.[O-][Cl+3]([O-])([O-])[O-] [Compound 50] | – |
| 120 nM | 1960 nM | 472 nM | 280000 nM | 64 to 135 nM | – | – | – | NS(=O)(=O)c1ccc(C[n+]2c(-c3ccccc3)cc(-c3ccccc3)cc2-c2ccccc2)cc1 [Compound 52] | – |
| 106 nM | 1950 nM | 493 nM | 280000 nM | 64 to 135 nM | – | – | – | NS(=O)(=O)c1ccc(C[n+]2c(-c3ccccc3)cccc2-c2ccccc2)cc1 [Compound 53] | – |
| 35 nM | 51 nM | – | 3000 nM | – | – | – | – | Cc1cc(C)[n+](Cc2ccc(S(N)(=O)=O)cc2)c(C)c1C [Compound 54] | Ki (hCA IX; [5]): 6 to 54 nM; Ki (hCA II; read-out: KI hCA II): 30 nM |
| 31 nM | 32 nM | 15 nM | 2000 nM | – | – | – | – | Cc1cc(C)[n+](CCc2ccc(S(N)(=O)=O)cc2)c(C(C)C)c1 [Compound 56] | – |
| 49 nM | 70 nM | 20 nM | 3000 nM | – | – | – | – | Cc1cc(C(C)C)[n+](CCc2ccc(S(N)(=O)=O)cc2)c(C(C)C)c1 [Compound 57] | – |
| 6 nM | 20 nM | 8 nM | 1000 nM | – | – | – | – | Cc1cc(-c2ccccc2)cc(C)[n+]1CCc1ccc(S(N)(=O)=O)cc1 [Compound 58] | Ki (hCA IX; [5]): < 10 nM |
| 8 nM | 21 nM | 9 nM | 1000 nM | < 10 nM | – | – | – | CCc1cc(-c2ccccc2)cc(CC)[n+]1CCc1ccc(S(N)(=O)=O)cc1 [Compound 59] | – |
| 205 nM | 82 nM | 42 nM | 7000 nM | 160 to 450 nM | – | – | – | CCCc1cc(-c2ccccc2)cc(CCC)[n+]1CCc1ccc(S(N)(=O)=O)cc1 [Compound 60] | – |
| 84 nM | – | 270 nM | 112000 nM | – | – | – | – | CCCc1cc(-c2ccccc2)cc(-c2ccccc2)[n+]1CCc1ccc(S(N)(=O)=O)cc1 [Compound 64] | Ki (bCA IV; read-out: KI bCA IV): 1060 nM |
| 120 nM | 2010 nM | 544 nM | 290000 nM | – | – | – | – | CCCCc1cc(-c2ccccc2)cc(-c2ccccc2)[n+]1CCc1ccc(S(N)(=O)=O)cc1 [Compound 66] | – |
| 81 nM | 1900 nM | – | 265000 nM | 64 to 135 nM | – | – | – | NS(=O)(=O)c1ccc(CC[n+]2c(-c3ccccc3)cccc2-c2ccccc2)cc1 [Compound 69] | Ki (hCA II; read-out: KI hCA II): 420 nM |
| 8 nM | 21 nM | 10 nM | 2000 nM | – | – | – | – | Cc1cc(C)[n+](CCc2ccc(S(N)(=O)=O)cc2)c(C)c1C [Compound 70] | Ki (hCA IX; [5]): 6 to 54 nM and < 10 nM |
| – | – | – | – | 3 to 9 nM | 5 nM | 3 nM | 0.39 nM | Cc1cc(C)[n+](-c2ccc(S(=O)(=O)Nc3nnc(S(N)(=O)=O)s3)cc2)c(C(C)C)c1 [Compound 72, 1-N-[5-Sulfamoyl-1,3,4-thiadiazol-2-yl-(aminosulfonyl-4-phenyl)]-2-iso-propyl-4,6-dimethylpyridinium perchlorate] | Ki (hCA II; [9]): 0.2 to 1.61 nM; Ki (hCA I; [10]): 4 nM |
| – | – | – | – | – | 16 nM | 4.7 nM | 1.54 nM | Cc1cc(C(C)C)[n+](-c2ccc(S(=O)(=O)Nc3nnc(S(N)(=O)=O)s3)cc2)c(C(C)C)c1 [Compound 73, 1-N-[5-Sulfamoyl-1,3,4-thiadiazol-2-yl-(aminosulfonyl-4-phenyl)]-2,6-di-iso-propyl-4-methylpyridinium perchlorate] | Ki (hCA IX; [5]): 12 to 35 nM; Ki (hCA II; [9]): 0.2 to 1.61 nM; Ki (hCA I; [10]): 7 nM; Ki (hCA I; [11]): 7 to 12 nM |
| – | – | – | – | 12 to 35 nM | 34 nM | 9.4 nM | 3.13 nM | Cc1cc(C(C)(C)C)[n+](-c2ccc(S(=O)(=O)Nc3nnc(S(N)(=O)=O)s3)cc2)c(C(C)(C)C)c1 [Compound 74] | Ki (bCA IV; [12]): 5.2 to 10.3 nM; Ki (hCA II; [9]): 3.13 to 5.96 nM; Ki (hCA I; [10]): 11 nM; Ki (hCA I; [11]): 7 to 12 nM |
| – | – | – | – | – | 6 nM | 2 nM | 0.2 nM | Cc1cc(-c2ccccc2)cc(C)[n+]1-c1ccc(S(=O)(=O)Nc2nnc(S(N)(=O)=O)s2)cc1 [Compound 75, 1-N-[5-Sulfamoyl-1,3,4-thiadiazol-2-yl-(aminosulfonyl-4-phenyl)]-2,6-dimethyl-4-phenylpyridinium perchlorate] | Ki (hCA IX; [5]): 3 to 9 nM; Ki (hCA II; read-out: KI against CA II): 0.2 to 1.61 nM; Ki (hCA I; [11]): 3 nM |
| – | – | – | – | 12 to 35 nM | 35 nM | 8.1 nM | 3.45 nM | CCCc1cc(-c2ccccc2)cc(CCC)[n+]1-c1ccc(S(=O)(=O)Nc2nnc(S(N)(=O)=O)s2)cc1 [Compound 77, 1-N-[5-Sulfamoyl-1,3,4-thiadiazol-2-yl-(aminosulfonyl-4-phenyl)]-2,6-di-n-propyl-4-phenylpyridinium perchlorate] | Ki (bCA IV; [12]): 5.2 to 10.3 nM; Ki (hCA II; [9]): 3.13 to 5.96 nM; Ki (hCA I; [10]): 9 nM; Ki (hCA I; [11]): 7 to 12 nM |
| – | – | – | – | – | 40 nM | 10.3 nM | 4.62 nM | CCCCc1cc(-c2ccccc2)cc(CCCC)[n+]1-c1ccc(S(=O)(=O)Nc2nnc(S(N)(=O)=O)s2)cc1 [Compound 78] | Ki (hCA IX; [5]): 40 to 43 nM; Ki (bCA IV; [12]): 5.2 to 10.3 nM; Ki (hCA II; [9]): 3.13 to 5.96 nM; Ki (hCA I; [10]): 10 nM; Ki (hCA I; [11]): 7 to 12 nM |
| – | – | – | – | – | 30 nM | 4.1 nM | 1.61 nM | CC(C)c1cc(-c2ccccc2)cc(C(C)C)[n+]1-c1ccc(S(=O)(=O)Nc2nnc(S(N)(=O)=O)s2)cc1 [Compound 79, 1-N-[5-Sulfamoyl-1,3,4-thiadiazol-2-yl-(aminosulfonyl-4-phenyl)]-2,6-di-isopropyl-4-phenylpyridinium perchlorate] | Ki (hCA IX; [5]): 12 to 35 nM; Ki (hCA II; [9]): 0.2 to 1.61 nM; Ki (hCA I; [10]): 5 nM |
| – | – | – | – | 12 to 35 nM | 24 nM | 3 nM | 1.21 nM | Cc1cc(-c2ccccc2)cc(-c2ccccc2)[n+]1-c1ccc(S(=O)(=O)Nc2nnc(S(N)(=O)=O)s2)cc1 [Compound 80, 1-N-[5-Sulfamoyl-1,3,4-thiadiazol-2-yl-(aminosulfonyl-4-phenyl)]-2-methyl-4,6-diphenylpyridinium perchlorate] | Ki (hCA II; [9]): 0.2 to 1.61 nM; Ki (hCA I; [10]): 4 nM |

From patent publication US8628771B2, “CA IX-specific inhibitors” (Institute of Virology Slovak Academy of Sciences, priority 2002, dated 2014)
